From ChEMBL document CHEMBL6109105, “Design, synthesis and antibacterial evaluation of oxazolidinone derivatives containing N-methylglycyl or quaternary ammonium salts” (Bioorg Med Chem, 2025)
Values after ≈ are worked out from the molar mass of the structure shown. Active and inactive are the calls of the source. No cut-off for these calls is given here.

Columns and labels:
Staphylococcus aureus [1] = experiment: Antibacterial activity against Staphylococcus aureus ATCC 29213 assessed as inhibition of bacterial growth incubated for 16 to 18 hrs by microbroth dilution method; format: functional; conditions: time 16-18 hrs, read-out: MIC100
Escherichia coli = experiment: Antibacterial activity against Escherichia coli ATCC 25922 assessed as inhibition of bacterial growth incubated for 16 to 18 hrs by microbroth dilution method; format: functional; conditions: time 16-18 hrs, read-out: MIC100
[2] = system: Stenotrophomonas maltophilia; experiment: Antibacterial activity against Stenotrophomonas maltophilia ATCC 17808 assessed as inhibition of bacterial growth incubated for 16 to 18 hrs by microbroth dilution method; format: functional; conditions: time 16-18 hrs, read-out: MIC100
[3] = Hemolytic activity in sheep RBC assessed as hemolysis incubated for 1 hrs by microplate reader analysis; format: toxicity, cell-based, Ovis aries, Erythrocyte; conditions: sheep red blood cells
Enterococcus faecalis [4] = experiment: Antibacterial activity against Enterococcus faecalis ATCC 29212 assessed as inhibition of bacterial growth incubated for 16 to 18 hrs by microbroth dilution method; format: functional; conditions: time 16-18 hrs, read-out: MIC100
Cell membrane [5] = experiment: Induction of cytoplasmic membrane depolarization in Enterococcus faecalis assessed as increase in fluorescence intensity by DiSC35 dye based microplate reader analysis
Enterococcus faecalis [6] = experiment: Post-antibiotic affect in Enterococcus faecalis assessed as reduction in growth rate at 16 times of MIC measured after 1 hrs; format: functional, organism-based
Enterococcus faecalis [7] = experiment: Antibacterial activity against Enterococcus faecalis assessed as inhibition of bacterial growth incubated for 3 hrs in presence of 50% MHB by dilution method; format: functional, organism-based
Enterococcus faecalis [8] = experiment: Post-antibiotic affect in Enterococcus faecalis assessed as reduction in growth rate at 8 times of MIC measured after 1 hrs; format: functional, organism-based
[9] = Cytotoxicity against human HeLa cells assessed as cell viability at 64 microg/ml incubated for 24 hrs by CCK8 assay relative to control; format: toxicity, cell-based; conditions: at 64 µg/mL, read-out: Activity
Cell membrane [10] = experiment: Induction of cell membrane damage in Enterococcus faecalis assessed as nucleic acid leakage at 32 times of MIC incubated for 2 hrs by fluorescence spectrophotometric analysis; format: subcellular
Enterococcus faecalis [11] = experiment: Disruption of preformed biofilm in Enterococcus faecalis assessed as bacterial survival rate at 16 times of MIC measured after 24 hrs relative to control; format: functional
Enterococcus faecalis [12] = experiment: Antipersister-activity against in Enterococcus faecalis assessed as log reduction in persistent cells at 32 times of MIC preincubated with 100 times of MIC of rifampicin for 24 hrs followed by compound addition and measured after 8 hrs by drop plate counting method; format: functional
Cell membrane [13] = experiment: Induction of cell membrane damage in Enterococcus faecalis assessed as nucleic acid leakage at 8 times of MIC incubated for 2 hrs by fluorescence spectrophotometric analysis; format: subcellular
Enterococcus faecalis [14] = experiment: Induction of ROS-dependent oxidative stress in Enterococcus faecalis assessed as decrease in GSH activity at 8 times of MIC (reference value: 1.34 %); format: functional; design: scale not given: the % may be the effect or the level left
Cell membrane [15] = experiment: Induction of cell membrane damage in Enterococcus faecalis assessed as nucleic acid leakage at 16 times of MIC incubated for 2 hrs by fluorescence spectrophotometric analysis; format: subcellular
Cell membrane [16] = experiment: Induction of cytoplasmic membrane permeability in Enterococcus faecalis assessed as increase in fluorescence intensity at 8 times of MIC by PI staining based analysis
Enterococcus faecalis [17] = experiment: Induction of ROS accumulation in Enterococcus faecalis assessed as fluorescence intensity at 8 times of MIC incubated for 30 mins by DCFH-DA staining based microplate reader analysis; format: functional; conditions: 0.5 h
Enterococcus faecalis [18] = experiment: Antibacterial activity against Enterococcus faecalis assessed as inhibition of bacterial growth incubated for 3 hrs in presence of 50% plasma by dilution method; format: functional
Enterococcus faecalis [19] = experiment: Antibacterial activity against Enterococcus faecalis assessed as post-antibiotic effect at 8 times of MIC measured up to 8 hrs; format: functional
Enterococcus faecalis [20] = experiment: Disruption of preformed biofilm in Enterococcus faecalis assessed as bacterial survival rate at 32 times of MIC measured after 24 hrs relative to control; format: functional
Staphylococcus aureus [21] = experiment: Antibacterial activity against Staphylococcus aureus ATCC 29213 assessed as inhibition of bacterial growth by CLSI protocol based broth liquid microdilution method; format: functional
Staphylococcus aureus [22] = experiment: Antibacterial activity against methicillin-resistant Staphylococcus aureus assessed as inhibition of bacterial growth by CLSI protocol based broth liquid microdilution method; format: functional
Enterococcus = experiment: Antibacterial activity against vancomycin-resistant enterococcus assessed as inhibition of bacterial growth by CLSI protocol based broth liquid microdilution method; format: functional

CC(=O)NC[C@H]1CN(c2ccc(N3CCN(C(=O)C[N+](C)(C)Cc4ccccc4)CC3)c(F)c2)C(=O)O1.[Br-]
MIC (Staphylococcus aureus [1]): 128 µg/mL | MIC (Escherichia coli): > 128 µg/mL | MIC [2]: > 128 µg/mL | HC50 at 1 h [3]: > 1280 µg/mL | MIC (Enterococcus faecalis [4]): 4 µg/mL

COc1ccc(CN(C)CC(=O)N2CCN(c3ccc(N4C[C@H](CNC(C)=O)OC4=O)cc3F)CC2)cc1
MIC (Staphylococcus aureus [1]): 16 µg/mL (≈ 30.3 µM) | MIC (Escherichia coli): > 128 µg/mL | MIC [2]: > 128 µg/mL | HC50 at 1 h [3]: > 1280 µg/mL | MIC (Enterococcus faecalis [4]): 2 µg/mL (≈ 3.79 µM)

C[C@@H](O)[C@H]1C(=O)N2C(C(=O)O)=C(S[C@@H]3CN[C@H](C(=O)N(C)C)C3)[C@H](C)[C@H]12 [MEROPENEM]
MIC (Escherichia coli): 0.031 µg/mL (≈ 0.0808 µM) | MIC [2]: 0.031 µg/mL (≈ 0.0808 µM)

CC(=O)NC[C@H]1CN(c2ccc(N3CCN(C(=O)C[N+](C)(C)Cc4ccc(C(F)(F)F)cc4)CC3)c(F)c2)C(=O)O1.[Br-]
MIC (Staphylococcus aureus [1]): 128 µg/mL | MIC (Escherichia coli): > 128 µg/mL | MIC [2]: > 128 µg/mL | HC50 at 1 h [3]: > 1280 µg/mL | MIC (Enterococcus faecalis [4]): 128 µg/mL

CC(=O)NC[C@H]1CN(c2ccc(N3CCN(C(=O)CN(C)Cc4ccccc4)CC3)c(F)c2)C(=O)O1
MIC (Staphylococcus aureus [1]): 16 µg/mL (≈ 32.2 µM) | MIC (Escherichia coli): > 128 µg/mL | MIC [2]: > 128 µg/mL | HC50 at 1 h [3]: > 1280 µg/mL | MIC (Enterococcus faecalis [4]): 4 µg/mL (≈ 8.04 µM)

CCC[N+](C)(C)CC(=O)N1CCN(c2ccc(N3C[C@H](CNC(C)=O)OC3=O)cc2F)CC1.[Br-]
MIC (Staphylococcus aureus [1]): 64 µg/mL | MIC (Escherichia coli): > 128 µg/mL | MIC [2]: > 128 µg/mL | HC50 at 1 h [3]: > 1280 µg/mL | MIC (Enterococcus faecalis [4]): 64 µg/mL

CC(=O)NC[C@H]1CN(c2ccc(N3CCN(C(=O)CN(C)Cc4cccc(Cl)c4)CC3)c(F)c2)C(=O)O1
MIC (Staphylococcus aureus [1]): 8 µg/mL (≈ 15 µM) | MIC (Escherichia coli): > 128 µg/mL | MIC [2]: > 128 µg/mL | HC50 at 1 h [3]: > 1280 µg/mL | MIC (Enterococcus faecalis [4]): 2 µg/mL (≈ 3.76 µM)

CC(=O)NC[C@H]1CN(c2ccc(N3CCN(C(=O)CN(C)Cc4ccc(C)cc4)CC3)c(F)c2)C(=O)O1
MIC (Staphylococcus aureus [1]): 16 µg/mL (≈ 31.3 µM) | MIC (Escherichia coli): > 128 µg/mL | MIC [2]: > 128 µg/mL | HC50 at 1 h [3]: > 1280 µg/mL | MIC (Enterococcus faecalis [4]): 2 µg/mL (≈ 3.91 µM)

CC[N+](C)(C)CC(=O)N1CCN(c2ccc(N3C[C@H](CNC(C)=O)OC3=O)cc2F)CC1.[Br-]
MIC (Staphylococcus aureus [1]): 64 µg/mL | MIC (Escherichia coli): > 128 µg/mL | MIC [2]: > 128 µg/mL | HC50 at 1 h [3]: > 1280 µg/mL | MIC (Enterococcus faecalis [4]): 32 µg/mL

CCCCCC[N+](C)(C)CC(=O)N1CCN(c2ccc(N3C[C@H](CNC(C)=O)OC3=O)cc2F)CC1.[Br-]
MIC (Staphylococcus aureus [1]): 128 µg/mL | MIC (Escherichia coli): > 128 µg/mL | MIC [2]: > 128 µg/mL | HC50 at 1 h [3]: > 1280 µg/mL | MIC (Enterococcus faecalis [4]): 8 µg/mL

CN[C@H](CC(C)C)C(=O)N[C@H]1C(=O)N[C@@H](CC(N)=O)C(=O)N[C@H]2C(=O)N[C@H]3C(=O)N[C@H](C(=O)N[C@H](C(=O)O)c4cc(O)cc(O)c4-c4cc3ccc4O)[C@H](O)c3ccc(c(Cl)c3)Oc3cc2cc(c3O[C@@H]2O[C@H](CO)[C@@H](O)[C@H](O)[C@H]2O[C@H]2C[C@](C)(N)[C@H](O)[C@H](C)O2)Oc2ccc(cc2Cl)[C@H]1O [VANCOMYCIN]
MIC (Enterococcus faecalis [4]): 1 µg/mL (≈ 0.69 µM)

CC(=O)NC[C@H]1CN(c2ccc(N3CCOCC3)c(F)c2)C(=O)O1 [LINEZOLID]
Activity (Cell membrane [5]): inactive | MIC (Staphylococcus aureus [1]): 1 µg/mL (≈ 2.96 µM) | Activity (Enterococcus faecalis [6]): Active | Activity (Enterococcus faecalis [7]): Active | Activity (Enterococcus faecalis [8]): Active | viability at 24 h, 64 microg/ml [9]: 56.5% | Activity (Cell membrane [10]): Active | MIC (Escherichia coli): > 128 µg/mL | Activity (Enterococcus faecalis [11]): 1.36% | Activity (Enterococcus faecalis [12]): 3.24 log10CFU/ml | MIC [2]: > 128 µg/mL | Activity (Cell membrane [13]): Active | Activity (Enterococcus faecalis [14]): 13.01% | Activity (Cell membrane [15]): Active | Activity (Cell membrane [16]): inactive | Flu intensity (Enterococcus faecalis [17]): 377 a.u. | Activity (Enterococcus faecalis [18]): Active | HC50 at 1 h [3]: > 1280 µg/mL | PAE (Enterococcus faecalis [19]): 0.67 h | Activity (Enterococcus faecalis [20]): 0.49%

CC(=O)NC[C@H]1CN(c2ccc(N3CCN(/N=C\c4ccc([N+](=O)[O-])o4)CC3)c(F)c2)C(=O)O1
MIC (Staphylococcus aureus [21]): 0.25 µg/mL (≈ 0.527 µM) | MIC (Staphylococcus aureus [22]): 1 µg/mL (≈ 2.11 µM) | MIC (Enterococcus): 1 µg/mL (≈ 2.11 µM)
